From paper PMC8230863 (The Journal of Venomous Animals and Toxins Including …, 2021)
Bridge positions count the residues as written; N and C are the ends. Peptide text beside a SMILES is read from it.

Key:
Type in all cases: cell-based
[1] = system: potassium channel currents in rat DRG neurons; conditions: 10 μM
[2] = system: sodium channel currents in rat DRG neurons; conditions: 10 μM; n = 3
human Cav2.2 = conditions: 10 μM; SD
[3] = system: calcium channel currents in rat DRG neurons

## CSCC[C@@H]1NC(=O)[C@H](CCC(N)=O)NC(=O)[C@@H]2CSSC[C@@H](C(=O)N3CCC[C@H]3C(N)=O)NC(=O)[C@@H]3CSSC[C@H](NC(=O)[C@@H](NC(=O)CNC(=O)[C@@H](N)CCC(N)=O)CSSC[C@H](NC(=O)[C@H](C)NC(=O)[C@H](C)NC1=O)C(=O)N[C@@H](CC(N)=O)C(=O)N1CCC[C@H]1C(=O)N1CCC[C@H]1C(=O)N1CCC[C@H]1C(=O)N3)C(=O)N1CCC[C@H]1C(=O)N1CCC[C@H]1C(=O)NCC(=O)N[C@@H](C(C)C)C(=O)N2 [Vr3a] (H-QGCCPPGVCQMAACNPPPCCP-NH2; disulfide 3-14, 4-19, 9-20)
[1]; SD
  increase of the peak potassium currents: 19.61 ± 5.12%
[1]; n = 3
  shift in the current-voltage relationship of potassium channels: do not induce a shift
[2]
  effect on the peak of the sodium currents: no effects
  shift in the activation curve of sodium channels (change of V50): ~ 10 mV
  shift in the current-voltage relationship of sodium channels: ~ 10 mV
  shift in the inactivation curve of sodium channels (change of V50): ~ 5 mV
  shift in the recovery curve, delaying sodium channel recovery: ~ 0.002 second
Human Cav2.2
  inhibition of human Cav2.2 currents: 12.86% ± 4.93%
[3]; 10 μM, SD
  inhibition of the peak calcium currents: 31.26% ± 4.53%
[3]; 10 μM, n = 3
  shift in the current-voltage relationship of calcium channels: do not induce a shift
[3]; SD
  IC50: 19.3 ± 4.32 µM
